Calls of active or inactive are those of the source. The calls are words filed in the database; no cut-off is given here.
Experiments:
NCI-H1299 = test: Antiproliferative activity against human NCI-H1299 cells assessed as inhibition of cell proliferation incubated for 48 hrs by MTT assay; assay type: functional, cell-based; conditions: NCI-H1299, 48 h
PC-3 = test: Antiproliferative activity against human PC3 cells assessed as inhibition of cell proliferation incubated for 48 hrs by MTT assay; assay type: functional, cell-based; conditions: PC-3, 48 h
A549 = test: Antiproliferative activity against human A549 cells assessed as inhibition of cell proliferation incubated for 48 hrs by MTT assay; assay type: functional, cell-based; conditions: A549, 48 h
K562 [1] = test: Antiproliferative activity against human K562 cells assessed as inhibition of cell proliferation incubated for 48 hrs by MTT assay; assay type: functional, cell-based; conditions: K562, 48 h
MRC5 = test: Cytotoxicity against human MRC5 cells assessed as inhibition of cell proliferation incubated for 48 hrs by MTT assay; assay type: cell-based; conditions: MRC5, 48 h
K562 [2] = test: Induction of apoptosis in human K562 cells at assessed as necrotic cells at 10 uM measured after 24 hrs by AnnexinV-FITC/propidium iodide staining based flow cytometry (reference value: 0.518 %); assay type: functional
K562 [3] = test: Induction of apoptosis in human K562 cells assessed as upregulation of Bax protein expression measured after 24 hrs by Western blot analysis; assay type: functional, cell-based
K562 [4] = test: Induction of apoptosis in human K562 cells at assessed as early apoptotic cells at 20 uM measured after 24 hrs by AnnexinV-FITC/propidium iodide staining based flow cytometry (reference value: 1.45 %); assay type: functional
K562 [5] = test: Induction of apoptosis in human K562 cells at assessed as necrotic cells at 5 uM measured after 24 hrs by AnnexinV-FITC/propidium iodide staining based flow cytometry (reference value: 0.518 %); assay type: functional
K562 [6] = test: Induction of apoptosis in human K562 cells at 5 to 20 uM measured after 24 hrs by AO-EB staining based fluorescence microscopy analysis; assay type: functional, cell-based
K562 [7] = test: Induction of apoptosis in human K562 cells at assessed as late apoptotic cells at 10 uM measured after 24 hrs by AnnexinV-FITC/propidium iodide staining based flow cytometry (reference value: 2.06 %); assay type: functional
K562 [8] = test: Induction of apoptosis in human K562 cells at assessed as early apoptotic cells at 10 uM measured after 24 hrs by AnnexinV-FITC/propidium iodide staining based flow cytometry (reference value: 1.45 %); assay type: functional
K562 [9] = test: Induction of apoptosis in human K562 cells at assessed as necrotic cells at 20 uM measured after 24 hrs by AnnexinV-FITC/propidium iodide staining based flow cytometry (reference value: 0.518 %); assay type: functional
K562 [10] = test: Induction of apoptosis in human K562 cells at assessed as late apoptotic cells at 5 uM measured after 24 hrs by AnnexinV-FITC/propidium iodide staining based flow cytometry (reference value: 2.06 %); assay type: functional
K562 [11] = test: Induction of apoptosis in human K562 cells at assessed as early apoptotic cells at 5 uM measured after 24 hrs by AnnexinV-FITC/propidium iodide staining based flow cytometry (reference value: 1.45 %); assay type: functional
K562 [12] = test: Induction of apoptosis in human K562 cells measured after 24 hrs by AnnexinV-FITC/propidium iodide staining based flow cytometry; assay type: functional, cell-based
K562 [13] = test: Induction of apoptosis in human K562 cells assessed as downregulation of Bcl-2 protein measured after 24 hrs by Western blot analysis; assay type: functional, cell-based
K562 [14] = test: Cell cycle arrest in human K562 cells assessed as increase in cell population at G1 phase at 5 uM measured after 24 hrs by flow cytometry analysis; assay type: functional, cell-based
K562 [15] = test: Induction of apoptosis in human K562 cells at assessed as live cells at 20 uM measured after 24 hrs by AnnexinV-FITC/propidium iodide staining based flow cytometry (reference value: 96 %); assay type: functional
K562 [16] = test: Induction of apoptosis in human K562 cells at assessed as live cells at 5 uM measured after 24 hrs by AnnexinV-FITC/propidium iodide staining based flow cytometry (reference value: 96 %); assay type: functional
K562 [17] = test: Induction of apoptosis in human K562 cells at assessed as late apoptotic cells at 20 uM measured after 24 hrs by AnnexinV-FITC/propidium iodide staining based flow cytometry (reference value: 2.06 %); assay type: functional
K562 [18] = test: Cell cycle arrest in human K562 cells assessed as decrease in cell population at S phase at 5 uM measured after 24 hrs by flow cytometry analysis; assay type: functional, cell-based
K562 [19] = test: Induction of apoptosis in human K562 cells at assessed as live cells at 10 uM measured after 24 hrs by AnnexinV-FITC/propidium iodide staining based flow cytometry (reference value: 96 %); assay type: functional

SMILES | IC50 (NCI-H1299) | IC50 (PC-3) | IC50 (A549) | IC50 (K562 [1]) | also measured
Cc1ccc(C2C(C#N)=C(N)Oc3cc4oc(-c5ccccc5)cc(=O)c4c(O)c32)cc1 (stereo unspecified) | 28.5 µM | 28.4 µM | 48.5 µM | 14.8 µM | –
COc1c2c(c(O)c3c(=O)cc(-c4ccccc4)oc13)C(c1ccc(C)cc1)C(C#N)=C(N)O2 (stereo unspecified) | > 50 µM | > 50 µM | > 50 µM | > 50 µM | –
N#CC1=C(N)Oc2cc3oc(-c4ccccc4)cc(=O)c3c(O)c2C1c1cccc(F)c1 (stereo unspecified) | 40.8 µM | 30.4 µM | 20.5 µM | 18.6 µM | –
N#CC1=C(N)Oc2cc3oc(-c4ccccc4)cc(=O)c3c(O)c2C1c1ccccc1F (stereo unspecified) | 45.3 µM | 43.2 µM | 44 µM | 28.1 µM | –
N#CC1=C(N)Oc2cc3oc(-c4ccccc4)cc(=O)c3c(O)c2C1c1ccccc1 (stereo unspecified) | > 50 µM | 46.9 µM | 31.6 µM | 43 µM | –
COc1ccccc1C1C(C#N)=C(N)Oc2cc3oc(-c4ccccc4)cc(=O)c3c(O)c21 (stereo unspecified) | > 50 µM | > 50 µM | > 50 µM | 20.2 µM | –
O=c1cc(-c2ccccc2)oc2cc(O)cc(O)c12 [CHRYSIN] | > 50 µM | > 50 µM | > 50 µM | > 50 µM | IC50 (MRC5): > 100 µM
N#CC1=C(N)Oc2cc3oc(-c4ccccc4)cc(=O)c3c(O)c2C1c1cccc([N+](=O)[O-])c1 (stereo unspecified) | 40.8 µM | 41.3 µM | 31.9 µM | 15.6 µM | –
N#CC1=C(N)Oc2cc3oc(-c4ccccc4)cc(=O)c3c(O)c2C1c1ccc(F)cc1 (stereo unspecified) | > 50 µM | 26.1 µM | 15.4 µM | 14.5 µM | –
N#CC1=C(N)Oc2cc3oc(-c4ccccc4)cc(=O)c3c(O)c2C1c1ccccc1Cl (stereo unspecified) | 43.4 µM | > 50 µM | > 50 µM | 14.4 µM | –
COc1cccc(C2C(C#N)=C(N)Oc3cc4oc(-c5ccccc5)cc(=O)c4c(O)c32)c1OC (stereo unspecified) | > 50 µM | > 50 µM | > 50 µM | 16.8 µM | –
N#CC1=C(N)Oc2cc3oc(-c4ccccc4)cc(=O)c3c(O)c2C1c1ccc(Cl)cc1 (stereo unspecified) | 33.1 µM | > 50 µM | > 50 µM | 12.4 µM | –
Cc1ccc(C2C(C#N)=C(N)Oc3cc4oc(-c5ccccc5)cc(=O)c4c(O)c32)c(C)c1 (stereo unspecified) | 42 µM | > 50 µM | > 50 µM | 19.7 µM | –
N#CC1=C(N)Oc2cc3oc(-c4ccccc4)cc(=O)c3c(O)c2C1c1ccc(Br)cc1 (stereo unspecified) | 18.8 µM | 46.8 µM | > 50 µM | 10.1 µM | –
COc1ccc(C2C(C#N)=C(N)Oc3cc4oc(-c5ccccc5)cc(=O)c4c(O)c32)cc1 (stereo unspecified) | 40.1 µM | > 50 µM | > 50 µM | 38.1 µM | –
N#CC1=C(N)Oc2cc3oc(-c4ccccc4)cc(=O)c3c(O)c2C1c1ccccc1Br (stereo unspecified) | > 50 µM | > 50 µM | > 50 µM | 48.8 µM | –
COc1ccc(-c2cc(=O)c3c(O)c4c(cc3o2)OC(N)=C(C#N)C4c2ccc(F)cc2)c(OC)c1 (stereo unspecified) | 44.8 µM | > 50 µM | > 50 µM | 45.2 µM | –
CC(C)(C)c1ccc(C2C(C#N)=C(N)Oc3cc4oc(-c5ccccc5)cc(=O)c4c(O)c32)cc1 (stereo unspecified) | > 50 µM | > 50 µM | > 50 µM | 47.1 µM | –
N#CC1=C(N)Oc2cc3oc(-c4ccccc4)cc(=O)c3c(O)c2C1c1cccc(Br)c1 (stereo unspecified) | 24.2 µM | 36.8 µM | > 50 µM | 6.41 µM | Activity (K562 [2]): 2.84%; Activity (K562 [3]): Dose-dependent effect; Activity (K562 [4]): 27.6%; Activity (K562 [5]): 1.06%; Activity (K562 [6]): Active; Activity (K562 [7]): 5.23%; Activity (K562 [8]): 14.4%; Activity (K562 [9]): 2.44%; Activity (K562 [10]): 2.85%; Activity (K562 [11]): 5.87%; Activity (K562 [12]): Dose-dependent effect; Activity (K562 [13]): Dose-dependent effect; Activity (K562 [14]): Dose-dependent effect; Activity (K562 [15]): 62.4%; Activity (K562 [16]): 90.2%; IC50 (MRC5): > 100 µM; Activity (K562 [17]): 7.58%; Activity (K562 [18]): Dose-dependent effect; Activity (K562 [19]): 77.6%

From ChEMBL document CHEMBL4627329, “Regioselective synthesis and evaluation of 2-amino 3-cyano chromene-chrysin hybrids as potential anticancer agents” (Bioorg Med Chem Lett, 2020)
